# pIC50: −log10 of the molar value. Where a name gives a salt, the structure may show the parent alone. Read-outs that look alike come from different tables or passages of the source.
# What was measured:
# hERG [1] = molecular target: T1, hERG (Homo sapiens, UniProt Q12809); experiment: Tox21 qHTS FluxOR thallium flux assay in hERG-U2OS cells; conditions: for IC50: (-LOG10(IC50), µM), Supplementary File S2, Tox21 chemical library; for pIC50: IC50, hERG-U2OS cells, 15 concentrations, three runs
# Experimental: The hERG-U2OS cell line was purchased from Codex BioSolution, Inc. (Gaithersburg, MD, USA). All the cell culture reagents were obtained from Invitrogen (Life Technologies, Madison, WI, USA). The hERG-U2OS cells were cultured in DMEM with Glutamax containing 10% fetal bovine serum (FBS), 1% of Non-Essential AA (NEAA), 50 U/mL penicillin, 50 μg/mL streptomycin, and 1 µg/mL puromycin. The cells were maintained at 37 °C under a humidified atmosphere and 5% CO2.
# A FluxORTM thallium flux assay was performed in hERG-U2OS cells with stable hERG expression, as previously described. In this assay, thallium ions are used as surrogates for K^+ ions to monitor the activity of the hERG K^+ channel. […] The hERG-U2OS cells suspended in culture medium were dispensed at 1000 cells/well/3μL into 1536-well, black wall/clear-bottom plates using a Multidrop Combi dispenser (Thermo Fisher, Waltham, MA, USA). After the assay plates were incubated at 37 °C overnight, 3 μL of Loading Buffer provided from FluxOR II Potassium Ion Channel Assay Kit (Life Technologies, Carlsbad, CA, USA) was added to each assay well. The assay plates were then incubated at room temperature in the dark for 1 h, followed by the addition of 23 nL of compound, dissolved in DMSO, DMSO only, or positive control, to the assay plate. Each compound was tested at 15 concentrations in three independent runs.
# Multiple criteria were used to select each small molecule, including properties allowing for high-throughput screens (HTS) (molecular weight, volatility, solubility, logP), commercial availability, possible and definite environmental hazards, or exposure concerns, and cost. A diverse group of 88 compounds was selected to be used as an internal control and plated in duplicate on each library plate to perform reproducibility analysis as well as to determine positional plate effects. Each compound in the Tox21 10K compound library was subjected to analytical chemistry quality control (QC), which provides information on the purity and identity of each sample. […] The compounds were serially diluted in Dimethylsulfoxide (DMSO) to 15 concentrations in 1536-well plates, covering a concentration range of up to four orders of magnitude.
# Many of these chemicals were sourced independently by NTP/EPA/NCATS from different vendors or the same vendor but different batches; these chemicals have been tested in replicates. Compound concentration-response data analysis was performed as previously described. […] The dataset was then corrected using the DMSO-only compound plates at the beginning and end of the compound plate stack by applying an in-house pattern correction algorithm. The half-maximum inhibition values (IC50) for each compound and maximum response (efficacy) values were obtained by fitting the concentration-response curves of each compound to a four-parameter Hill equation [24]. […] To identify chemicals with the potential to inhibit the hERG channel, we selected only antagonist chemicals with curve rank −5 to −9.
# hERG [2] = molecular target: T1, hERG; experiment: cell-based; conditions: (-LOG10(IC50), µM)
# hERG [3] = molecular target: T1, hERG; experiment: in vitro; conditions: (-LOG10(IC50), µM)
# [4] = hERG-U2OS cells, thallium flux, qHTS, result in words
# T1 sequence (Q12809 whole entry): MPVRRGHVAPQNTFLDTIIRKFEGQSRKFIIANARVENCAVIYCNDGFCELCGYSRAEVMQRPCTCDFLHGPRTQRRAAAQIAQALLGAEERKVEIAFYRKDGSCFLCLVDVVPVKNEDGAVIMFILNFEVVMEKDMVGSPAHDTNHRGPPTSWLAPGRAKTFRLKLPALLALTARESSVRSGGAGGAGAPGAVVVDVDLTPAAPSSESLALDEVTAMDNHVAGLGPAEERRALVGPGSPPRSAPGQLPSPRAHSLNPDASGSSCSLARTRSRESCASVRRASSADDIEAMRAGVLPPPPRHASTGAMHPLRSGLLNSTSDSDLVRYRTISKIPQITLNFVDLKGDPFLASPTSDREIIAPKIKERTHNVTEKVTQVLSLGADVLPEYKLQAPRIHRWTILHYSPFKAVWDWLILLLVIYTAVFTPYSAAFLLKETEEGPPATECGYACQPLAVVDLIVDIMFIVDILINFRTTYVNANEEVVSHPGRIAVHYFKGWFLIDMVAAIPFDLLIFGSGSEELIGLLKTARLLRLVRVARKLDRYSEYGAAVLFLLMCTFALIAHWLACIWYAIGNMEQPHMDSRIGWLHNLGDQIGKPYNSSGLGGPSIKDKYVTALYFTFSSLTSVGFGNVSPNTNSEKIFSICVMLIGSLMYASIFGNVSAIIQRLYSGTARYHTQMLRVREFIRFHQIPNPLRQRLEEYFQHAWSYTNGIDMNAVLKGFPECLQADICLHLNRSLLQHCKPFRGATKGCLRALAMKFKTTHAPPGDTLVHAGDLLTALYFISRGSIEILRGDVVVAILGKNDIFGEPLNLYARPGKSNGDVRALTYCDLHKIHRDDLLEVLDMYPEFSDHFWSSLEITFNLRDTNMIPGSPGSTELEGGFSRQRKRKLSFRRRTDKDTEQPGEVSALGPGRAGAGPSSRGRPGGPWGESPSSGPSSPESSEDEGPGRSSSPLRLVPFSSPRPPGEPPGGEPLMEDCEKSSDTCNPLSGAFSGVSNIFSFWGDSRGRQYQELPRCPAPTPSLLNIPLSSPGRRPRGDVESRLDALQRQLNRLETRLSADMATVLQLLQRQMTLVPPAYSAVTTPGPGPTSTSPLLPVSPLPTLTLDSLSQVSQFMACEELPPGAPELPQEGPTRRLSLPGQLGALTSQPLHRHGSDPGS
structure (smiles),measurement,setting,value
Clc1ccc(C(c2ccccc2Cl)C(Cl)(Cl)Cl)cc1 (stereo not drawn) [o p’-DDT],activity outcome for hERG inhibition in the assay,hERG [1]; [4],inhibitory activity
CCCCCCCC[N+](C)(CCCCCCCC)CCCCCCCC.O=S(=O)([O-])C(F)(F)F [Methyltrioctylammonium trifluoromethanesulfonate],Aff (affinity classification),hERG [1],1
same,activity outcome for hERG inhibition in the assay,hERG [1],most active
same,IC50,hERG [2],0.109 µM
O=c1[nH]cc(F)c(=O)[nH]1 [5-fluorouracil],activity outcome for hERG inhibition in the assay,hERG [1]; [4],inactive
OC(CN1CCC(Cc2ccc(F)cc2)CC1)c1ccc(Cl)cc1 (stereo not drawn) [Eliprodil],IC50,hERG [1],0.0916 µM
same,pIC50,"hERG [1]; thallium flux, qHTS",7.05
same,activity outcome for hERG inhibition in the assay,hERG [1]; [4],most active
CCCCCCCCCCn1cc[n+](CCCCCCCCCC)c1C.[Cl-] [3-Didecyl-2-methylimidazolium chloride],activity outcome for hERG inhibition in the assay,hERG [1]; [4],most active
CC(C)NCC(O)c1ccc(NS(C)(=O)=O)cc1 (stereo not drawn) [Sotalol],activity outcome for hERG inhibition in the assay,hERG [1]; [4],active
CC(=O)[O-].CC(=O)[O-].[Hg+2] [Mercury(II) acetate],IC50,hERG [3]; herg fluxor ii thallium influx,6.16 µM
CCCCCCCCCCCC[N+](C)(C)Cc1ccccc1 [Benzyldimethyldodecylammonium chloride],IC50,hERG [3]; herg fluxor ii thallium influx,1.21 µM
CCNC(=O)N1CCN(CCCC(c2ccc(F)cc2)c2ccc(F)cc2)CC1 [Amperozide hydrochloride],IC50,hERG [1],0.0916 µM
CCCCCCCCCCCCCC[P+](CCCC)(CCCC)CCCC.[Cl-] [tributyltetradecylphosphonium chloride],activity outcome for hERG inhibition in the assay,hERG [1]; [4],most active
same,IC50,hERG [2],0.334 µM
O=C(CCCN1CCC(O)(c2cccc(C(F)(F)F)c2)CC1)c1ccc(F)cc1 [Trifluperidol],activity outcome for hERG inhibition in the assay,hERG [1]; [4],most active
Cc1nc2sccn2c(=O)c1CCN1CCC(=C(c2ccc(F)cc2)c2ccc(F)cc2)CC1 [Ritanserin],pIC50,"hERG [1]; thallium flux, qHTS",6.74
same,activity outcome for hERG inhibition in the assay,hERG [1]; [4],most active
C=C1C(CCl)(CCl)C2(Cl)C(Cl)C(Cl)C1(Cl)C2(Cl)Cl (stereo not drawn) [Toxaphene],IC50,hERG [3]; fluxor ii thallium influx herg,35.6 µM
CC(CCc1ccccc1)NCC(O)c1ccc(O)c(C(N)=O)c1 (stereo not drawn) [Labetalol],activity outcome for hERG inhibition in the assay,hERG [1],active
same,IC50,hERG [2],13.3 µM
CCCCCCCCCCCC[N+](C)(C)Cc1ccccc1 [Benzyldodecyldimethylammonium bromide],IC50,hERG [3]; fluxor ii thallium influx herg,1.25 µM
CCNc1cc2[o+]c3cc(NCC)c(C)cc3c(-c3ccccc3C(=O)OCC)c2cc1C [Rhodamine 6G],IC50,hERG [3]; herg fluxor ii thallium influx,2.45 µM
CC1(C)C2(Cl)C(Cl)C(Cl)C(Cl)(C(Cl)Cl)C1(Cl)C2Cl (stereo not drawn) [Strobane],IC50,hERG [3]; herg fluxor ii thallium influx,41.2 µM
ClC1=C(Cl)C2(Cl)C3C(Cl)C(Cl)CC3C1(Cl)C2(Cl)Cl (stereo not drawn) [Technical chlordane],IC50,hERG [3]; herg fluxor ii thallium influx,28.5 µM
CS(=O)(=O)CCNCc1ccc(-c2ccc3ncnc(Nc4ccc(OCc5cccc(F)c5)c(Cl)c4)c3c2)o1 [Lapatinib],activity outcome for hERG inhibition in the assay,hERG [1]; [4],showing activity against hERG
C#CCC1=C(C)C(OC(=O)C2C(C=C(C)C)C2(C)C)CC1=O (stereo not drawn) [prallethrin],activity outcome for hERG inhibition in the assay,hERG [1]; [4],inhibitory activity
same,IC50,hERG [2],46.8 µM
Cl[C@H]1[C@H](Cl)[C@@H](Cl)[C@@H](Cl)[C@H](Cl)[C@H]1Cl [lindane],activity outcome for hERG inhibition in the assay,hERG [1],inhibitory activity
same,IC50,hERG [2],45 µM
CCNc1ccc(C(=C2C=CC(=[N+](CC)CC)C=C2)c2ccc(N(CC)CC)cc2)c2ccccc12.[Cl-] [basic blue 7],activity outcome for hERG inhibition in the assay,hERG [1]; [4],most active
same,IC50,hERG [2],0.526 µM
O=C(CCCN1CCC(O)(c2ccc(Cl)cc2)CC1)c1ccc(F)cc1 [Haloperidol],activity outcome for hERG inhibition in the assay,hERG [1],most active
CC(C)(C)c1ccc(CSc2cnn(C(C)(C)C)c(=O)c2Cl)cc1 [Pyridaben],activity outcome for hERG inhibition in the assay,hERG [1]; [4],inhibitory activity
same,IC50,hERG [2],18.8 µM
CC1(C)CNC(=NN=C(/C=C/c2ccc(C(F)(F)F)cc2)/C=C/c2ccc(C(F)(F)F)cc2)NC1 [hydramethylnon],activity outcome for hERG inhibition in the assay,hERG [1]; [4],most active
same,IC50,hERG [2],0.436 µM
C/C=C/C(=O)Oc1ccccc1[N+](=O)[O-] [Dinocap],activity outcome for hERG inhibition in the assay,hERG [1]; [4],inhibitory activity
same,IC50,hERG [2],20.3 µM
c1cc[c]([Sb]([c]2ccccc2)[c]2ccccc2)cc1 [Triphenylstibine],IC50,hERG [3]; herg fluxor ii thallium influx,17.4 µM
C=CCC1=C(C)C(OC(=O)C2C(C=C(C)C)C2(C)C)CC1=O (stereo not drawn) [allethrin],activity outcome for hERG inhibition in the assay,hERG [1],inhibitory activity
same,IC50,hERG [2],32.3 µM
CCCCCCCC[N+](CCCCCCCC)(CCCCCCCC)CCCCCCCC.[Br-] [tetra-N-octylammonium bromide],activity outcome for hERG inhibition in the assay,hERG [1],most active
same,IC50,hERG [2],0.745 µM
CCCCCCCC[P+](CCCCCCCC)(CCCCCCCC)CCCCCCCC.[Br-] [tetraoctylphosphonium bromide],activity outcome for hERG inhibition in the assay,hERG [1]; [4],most active
same,IC50,hERG [2],0.402 µM
O=C1NCN(c2ccccc2)C12CCN(CCCC(c1ccc(F)cc1)c1ccc(F)cc1)CC2 [Fluspirilene],activity outcome for hERG inhibition in the assay,hERG [1]; [4],most active
O=C(CCCN1CCC(O)(c2ccc(Br)cc2)CC1)c1ccc(F)cc1 [Bromperidol],activity outcome for hERG inhibition in the assay,hERG [1]; [4],most active
same,IC50,hERG [2],0.249 µM
O=c1[nH]c2ccccc2n1C1CCN(CCCC(c2ccc(F)cc2)c2ccc(F)cc2)CC1 [Pimozide],activity outcome for hERG inhibition in the assay,hERG [1],most active
O=S1OCC2C(CO1)C1(Cl)C(Cl)=C(Cl)C2(Cl)C1(Cl)Cl (stereo not drawn) [Endosulfan],activity outcome for hERG inhibition in the assay,hERG [1],inhibitory activity
same,IC50,hERG [2],32.1 µM
CO.COc1cc(Nc2c(C#N)cnc3cc(OCCCN4CCN(C)CC4)c(OC)cc23)c(Cl)cc1Cl [Bosutinib methanoate],activity outcome for hERG inhibition in the assay,hERG [1]; [4],showing activity against hERG
O=c1[nH]c2ccccc2n1CCCN1CCC(n2c(=O)[nH]c3cc(Cl)ccc32)CC1 [Domperidone],activity outcome for hERG inhibition in the assay,hERG [1]; [4],showing activity against hERG

# Source: PMC8869358, “High-Throughput Chemical Screening and Structure-Based Models to Predict hERG Inhibition” (Biology, 2022)
